Assay results published in PubChem BioAssay (NCI).
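Five compound concentrations were applied to cells in 96-well plates for 48 hours; endpoints were derived by simple linear interpolation of the resulting dose-response curve. GI50 is the concentration that inhibits growth by half. Definition used: TGI = concentration required for complete inhibition of growth.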

What was measured:
Experiment in all cases: NCI-60 cell line screen, 48 h
OVCAR-3 ovarian = system: OVCAR-3 ovarian
NCI-H522 lung = system: NCI-H522 lung
SNB-19 CNS = system: SNB-19 CNS
SW-620 colon = system: SW-620 colon
HOP-62 NSCLC = system: HOP-62 NSCLC
CAKI-1 renal = system: CAKI-1 renal
U251 CNS = system: U251 CNS
SK-MEL-5 melanoma = system: SK-MEL-5 melanoma
786-0 renal = system: 786-0 renal
MCF7 breast = system: MCF7 breast
TK-10 renal = system: TK-10 renal
MOLT-4 leukemia = system: MOLT-4 leukemia
NCI-H226 lung = system: NCI-H226 lung
HT29 colon = system: HT29 colon
UACC-257 melanoma = system: UACC-257 melanoma
M14 melanoma = system: M14 melanoma
CCRF-CEM leukemia = system: CCRF-CEM leukemia
SF-295 CNS = system: SF-295 CNS
COLO 205 colon = system: COLO 205 colon
SK-OV-3 ovarian = system: SK-OV-3 ovarian
MDA-MB-468 breast = system: MDA-MB-468 breast
HS 578T breast = system: HS 578T breast
DU-145 prostate = system: DU-145 prostate
NCI/ADR-RES ovarian = system: NCI/ADR-RES ovarian
SK-MEL-2 melanoma = system: SK-MEL-2 melanoma
ACHN renal = system: ACHN renal
MALME-3M melanoma = system: MALME-3M melanoma
OVCAR-4 ovarian = system: OVCAR-4 ovarian
KM12 colon = system: KM12 colon
SF-268 CNS = system: SF-268 CNS

`O=C(N/N=C/c1ccc(-c2ccc(O)cc2)o1)c1[nH]c2ccc(Br)cc2c1-c1ccccc1` gave a TGI (OVCAR-3 ovarian) of 0.873 µM, a GI50 (NCI-H522 lung) of 0.208 µM and a TGI (NCI-H522 lung) of 0.519 µM. The GI50 (SNB-19 CNS) was 0.577 µM, the TGI (SNB-19 CNS) was 14.6 µM and the GI50 (SW-620 colon) was 0.444 µM. The TGI (SW-620 colon) was 16.1 µM, the GI50 (HOP-62 NSCLC) was 0.87 µM and the TGI (HOP-62 NSCLC) was 19.2 µM. The GI50 (CAKI-1 renal) was 0.969 µM, the TGI (CAKI-1 renal) was 15.5 µM and the GI50 (U251 CNS) was 0.419 µM. The TGI (U251 CNS) was 10.3 µM, the GI50 (SK-MEL-5 melanoma) was 0.472 µM and the TGI (SK-MEL-5 melanoma) was 1.69 µM. The GI50 (786-0 renal) was 1.55 µM, the TGI (786-0 renal) was 8.43 µM and the GI50 (MCF7 breast) was 0.332 µM. The TGI (MCF7 breast) was 6.66 µM, the GI50 (TK-10 renal) was 4.56 µM and the TGI (TK-10 renal) was 19.6 µM. For the same compound, the GI50 (MOLT-4 leukemia) was 0.531 µM, the TGI (MOLT-4 leukemia) was 5.04 µM and the GI50 (NCI-H226 lung) was 2.95 µM. It also gave a TGI (NCI-H226 lung) of 22.4 µM, a GI50 (HT29 colon) of 1.92 µM and a TGI (HT29 colon) of 7.02 µM. The GI50 (UACC-257 melanoma) was 4.69 µM, the TGI (UACC-257 melanoma) was 23.1 µM and the GI50 (M14 melanoma) was 3.33 µM. The TGI (M14 melanoma) was 22.8 µM, the GI50 (CCRF-CEM leukemia) was 0.474 µM and the TGI (CCRF-CEM leukemia) was 26.9 µM. For the same compound, the GI50 (SF-295 CNS) was 0.611 µM, the TGI (SF-295 CNS) was 2.9 µM and the GI50 (COLO 205 colon) was 1.9 µM. The TGI (COLO 205 colon) was 3.93 µM, the GI50 (SK-OV-3 ovarian) was 0.493 µM and the TGI (SK-OV-3 ovarian) was 16.8 µM. The GI50 (MDA-MB-468 breast) was 0.318 µM, the TGI (MDA-MB-468 breast) was 2.66 µM and the GI50 (HS 578T breast) was 0.41 µM. The TGI (HS 578T breast) was 1.29 µM, the GI50 (DU-145 prostate) was 0.366 µM and the TGI (DU-145 prostate) was 3.85 µM. The GI50 (NCI/ADR-RES ovarian) was 0.292 µM, the TGI (NCI/ADR-RES ovarian) was 0.592 µM and the GI50 (SK-MEL-2 melanoma) was 0.378 µM. It also gave a TGI (SK-MEL-2 melanoma) of 3.68 µM, a GI50 (ACHN renal) of 0.5 µM and a TGI (ACHN renal) of 8.07 µM. It also gave a GI50 (MALME-3M melanoma) of 2.58 µM, a TGI (MALME-3M melanoma) of 22.4 µM and a GI50 (OVCAR-4 ovarian) of 3.56 µM. It also gave a TGI (OVCAR-4 ovarian) of 20.8 µM, a GI50 (KM12 colon) of 0.355 µM and a TGI (KM12 colon) of 4.51 µM. It also gave a GI50 (SF-268 CNS) of 0.654 µM and a TGI (SF-268 CNS) of 12.7 µM.
